What was measured:
lettuce (Green Wave) [1] = test: Example 1: High-temperature stress Petri dish test (lettuce), comparison with other natural products; format: in vivo; conditions: 0.1 ppm in agar medium
lettuce (Green Wave) [2] = test: Example 4: High-temperature stress Petri dish test (lettuce), comparison with flavonoids; format: in vivo; conditions: 0.1 ppm
lettuce (Green Wave) [3] = test: Example 2: High-temperature stress Petri dish test (lettuce), blending with neohesperidin
Description: For seeds, 2% water agar medium (using water as the solvent), which was prepared such that hesperidin (Fujifilm Wako Pure Chemical Corporation; special-grade reagent) and neohesperidin (Fujifilm Wako Pure Chemical Corporation; special-grade reagent) were contained at the predetermined final concentrations shown in Table 2, was filled into square Petri dishes (“model number: D-210-16”, manufactured by As One Corporation). Before high-temperature treatment, lettuce (Green Wave, Takii & Co., Ltd.) was sown on 2% water agar medium, and lettuce seedlings on day 2 after the sowing were transplanted to the above-described agar medium to which the hesperidin and/or the like was/were added. At the time of the transplantation, the tip of the root was marked. Each Petri dish after the transplantation was placed in an incubator (“model number: FLI-2010A”, manufactured by EYELA) at an angle of 45° with respect to the bottom surface, and high-temperature treatment was carried out at 42° C. for 1.5 hours. Thereafter, culture was similarly performed at 23° C. for 2 days, and then the increase in the root length was evaluated in terms of elongation from the tip of the root of each seedling at the time of the transplantation. In addition, for evaluation of the effect of the mixture of hesperidin and neohesperidin in normal cultivation, culture was similarly performed at 23° C. without performing the high-temperature treatment, followed by evaluation of the increase in the root length. […] The Colby's equation is as follows.
E=(x+y)−(x·y)/100 Colby's equation:
E: Expected root length x: Root length in the case of application of hesperidin alone y: Root length in the case of application of neohesperidin alone For each group, 15 measurement results were obtained (N=15).

lettuce (Green Wave) [4] = test: Example 3: High-temperature stress Petri dish test (lettuce), blending with β-carotene; format: in vivo; conditions: 0.1 ppm
Rice (Koshihikari) seeds = test: Example 5: High-temperature stress Petri dish test (rice seeds); format: in vivo; conditions: for Germination rate, Increase rate: non-addition group = 100.0; for Germination rate, Average: seeds 65° C. hot water 10 minutes, 28° C. 5 days
Description: Rice (Koshihikari) seeds were soaked in hot water at 65° C. for 10 minutes to perform high-temperature treatment. […] A group similarly soaked in distilled water was provided as a non-addition group. After the soaking treatment, the seeds were dried in air, and then 20 seeds were sown on each of shallow Petri dishes in which qualitative filter paper was placed. To the filter paper in each Petri dish, 5 mL of distilled water was uniformly added dropwise. […] For each group, three measurement results were obtained (N=3).

[5] = High-temperature treatment (42° C., 1.5 hours), then 23° C. 2 days
[6] = High-temperature treatment (42° C., 1.5 hours)

Row | Molecule | Root length (lettuce (Green Wave) [1]; [5]) | Root length (lettuce (Green Wave) [1]; Normal cultivation) | further results
1 | CC1=C(/C=C/C(C)=C/C=C/C(C)=C/C=C/C=C(C)/C=C/C=C(C)/C=C/C2=C(C)C(=O)[C@@H](O)CC2(C)C)C(C)(C)C[C@H](O)C1=O [Astaxanthin, reference compound] | 11.1 mm | 20.0 mm | 
2 | CC1=C(/C=C/C(C)=C/C=C/C(C)=C/C=C/C=C(C)/C=C/C=C(C)/C=C/C(=O)[C@]2(C)C[C@@H](O)CC2(C)C)C(C)(C)C[C@H](O)C1 [Capsanthin, reference compound] | 10.7 mm | 20.4 mm | 
3 | O=c1c(-c2ccc(O)cc2)coc2cc(O)ccc12 [Daidzein] |  |  | Root length (lettuce (Green Wave) [2]; [6]): 7.5 mm; Root length (lettuce (Green Wave) [2]; Normal cultivation): 26.6 mm
4 | O=c1c(-c2ccc(O)cc2)coc2cc(O)cc(O)c12 [Genistein] |  |  | Root length (lettuce (Green Wave) [2]; [6]): 7.4 mm; Root length (lettuce (Green Wave) [2]; Normal cultivation): 25.8 mm
5 | COc1ccc([C@@H]2CC(=O)c3c(O)cc(O)cc3O2)cc1O [Hesperetin, hesperetin] | 18.0 mm | 23.5 mm | 
6 | O=C1C[C@@H](c2ccc(O)cc2)Oc2cc(O)cc(O)c21 [Naringenin] |  |  | Root length (lettuce (Green Wave) [2]; [6]): 8.4 mm; Root length (lettuce (Green Wave) [2]; Normal cultivation): 22.1 mm
7 | COc1ccc(CCC(=O)c2c(O)cc(O[C@@H]3O[C@H](CO)[C@@H](O)[C@H](O)[C@H]3O[C@@H]3O[C@@H](C)[C@H](O)[C@@H](O)[C@H]3O)cc2O)cc1O [Neohesperidin dihydrochalcone, neohesperidin dihydrochalcone] | 15.3 mm | 23.4 mm | 
8 | COc1ccc([C@@H]2CC(=O)c3c(O)cc(O[C@@H]4O[C@H](CO)[C@@H](O)[C@H](O)[C@H]4O[C@@H]4O[C@@H](C)[C@H](O)[C@@H](O)[C@H]4O)cc3O2)cc1O [Neohesperidin] | 21.5 mm | 26.5 mm | Root length (lettuce (Green Wave) [3]; High-temperature treatment (42° C., 1.5 hours), 0.03 ppm): 4.9 mm; Root length (lettuce (Green Wave) [3]; High-temperature treatment (42° C., 1.5 hours), 0.1 ppm): 6.4 mm; Root length (lettuce (Green Wave) [3]; Normal cultivation, 0.03 ppm): 17.6 mm; Root length (lettuce (Green Wave) [3]; Normal cultivation, 0.1 ppm): 18.1 mm
9 | COc1ccc(-c2cc(=O)c3c(OC)c(OC)c(OC)c(OC)c3o2)cc1OC [Nobiletin, nobiletin] | 14.1 mm | 23.1 mm | 
10 | O=C(CCc1ccc(O)cc1)c1c(O)cc(O)cc1O [Phloretin, phloretin] | 14.8 mm | 21.9 mm | 
11 | COc1ccc(-c2cc(=O)c3c(OC)c(OC)c(OC)c(OC)c3o2)cc1 [Tangeretin, tangeretin] | 18.1 mm | 23.5 mm | 
12 | COc1ccc([C@@H]2CC(=O)c3c(O)cc(O[C@@H]4O[C@H](CO[C@@H]5O[C@@H](C)[C@H](O)[C@@H](O)[C@H]5O)[C@@H](O[C@H]5O[C@H](CO)[C@@H](O)[C@H](O)[C@H]5O)[C@H](O)[C@H]4O)cc3O2)cc1O [α-Monoglucosyl hesperidin, α-monoglucosyl hesperidin] | 18.7 mm | 23.7 mm | 
13 | CC1=C(/C=C/C(C)=C/C=C/C(C)=C/C=C/C=C(C)/C=C/C=C(C)/C=C/C2=C(C)CCCC2(C)C)C(C)(C)CCC1 [β-Carotene, reference compound] | 11.2 mm | 22.3 mm | Root length (lettuce (Green Wave) [4]; [6]): 7.5 mm; Root length (lettuce (Green Wave) [4]; Normal cultivation): 23.8 mm; Germination rate, Increase rate (Rice (Koshihikari) seeds; 1 ppm): 118.9%; Germination rate, Increase rate (Rice (Koshihikari) seeds; 10 ppm): 134.0%; Germination rate, Increase rate (Rice (Koshihikari) seeds; 100 ppm): 103.7%; Germination rate, Average (Rice (Koshihikari) seeds; then soaked 1 hour at 1 ppm): 69.9%; Germination rate, Average (Rice (Koshihikari) seeds; then soaked 1 hour at 10 ppm): 78.8%; Germination rate, Average (Rice (Koshihikari) seeds; then soaked 1 hour at 100 ppm): 61.0%
14 | hesperidin methylchalcone | 16.7 mm | 22.8 mm | 
